Experimental data as given in PubChem BioAssay (NCI).
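Grown in 96-well plates, cells were treated for 48 hours with each compound at five concentrations. Insufficient inhibition: endpoint recorded as highest concentration tested. GI50 = concentration required for 50% inhibition of growth. TGI is the concentration that stops growth completely.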

Legend:
Assay in all cases: NCI tumour cell line growth inhibition, 48 h; in the data active means GI50 below about 0.43 µM; inactive means the rest
HT29 colon = system: HT29 colon
COLO 205 colon = system: COLO 205 colon
T-47D breast = system: T-47D breast
NCI-H226 lung = system: NCI-H226 lung
HOP-62 NSCLC = system: HOP-62 NSCLC
SK-OV-3 ovarian = system: SK-OV-3 ovarian
MCF7 breast = system: MCF7 breast
HL-60(TB) leukemia = system: HL-60(TB) leukemia
ACHN renal = system: ACHN renal
SF-539 CNS = system: SF-539 CNS
SN12C renal = system: SN12C renal
NCI/ADR-RES ovarian = system: NCI/ADR-RES ovarian
OVCAR-8 ovarian = system: OVCAR-8 ovarian
A498 renal = system: A498 renal
RPMI-8226 leukemia = system: RPMI-8226 leukemia
TK-10 renal = system: TK-10 renal
SNB-19 CNS = system: SNB-19 CNS
HCT-116 colon = system: HCT-116 colon
NCI-H460 lung = system: NCI-H460 lung
IGROV1 ovarian = system: IGROV1 ovarian
SF-268 CNS = system: SF-268 CNS
M14 melanoma = system: M14 melanoma
OVCAR-3 ovarian = system: OVCAR-3 ovarian
SW-620 colon = system: SW-620 colon
HOP-92 NSCLC = system: HOP-92 NSCLC
U251 CNS = system: U251 CNS
PC-3 prostate = system: PC-3 prostate
RXF 393 renal = system: RXF 393 renal
DU-145 prostate = system: DU-145 prostate
UO-31 renal = system: UO-31 renal
MDA-MB-231 breast = system: MDA-MB-231 breast
SNB-75 CNS = system: SNB-75 CNS
UACC-62 melanoma = system: UACC-62 melanoma
786-0 renal = system: 786-0 renal
HS 578T breast = system: HS 578T breast
NCI-H23 lung = system: NCI-H23 lung
MALME-3M melanoma = system: MALME-3M melanoma
OVCAR-5 ovarian = system: OVCAR-5 ovarian
MOLT-4 leukemia = system: MOLT-4 leukemia
HCC-2998 colon = system: HCC-2998 colon
LOX IMVI melanoma = system: LOX IMVI melanoma
SF-295 CNS = system: SF-295 CNS
K-562 leukemia = system: K-562 leukemia
HCT-15 colon = system: HCT-15 colon
SK-MEL-5 melanoma = system: SK-MEL-5 melanoma
CAKI-1 renal = system: CAKI-1 renal
OVCAR-4 ovarian = system: OVCAR-4 ovarian
CCRF-CEM leukemia = system: CCRF-CEM leukemia
KM12 colon = system: KM12 colon
A549 NSCLC = system: A549 NSCLC
MDA-MB-435 = system: MDA-MB-435

O=C1/C(=C/N2N=C(c3ccc4ccccc4c3)CC2c2ccccc2O)SC(=S)N1c1cccnc1 (configuration not stated)
13.1 µM: TGI (SNB-75 CNS)
61 µM: TGI (U251 CNS)
38.5 µM: TGI (OVCAR-3 ovarian)
3.17 µM: TGI (MDA-MB-435)
39 µM: TGI (SK-MEL-5 melanoma)
8.34 µM: TGI (MDA-MB-231 breast)
active: GI50 (MCF7 breast) 0.371 µM | GI50 (RPMI-8226 leukemia) 0.391 µM | GI50 (HCT-116 colon) 0.33 µM | GI50 (SW-620 colon) 0.365 µM | GI50 (K-562 leukemia) 0.341 µM
> 100 µM: TGI (HT29 colon) | TGI (COLO 205 colon) | TGI (T-47D breast) | TGI (NCI-H226 lung) | TGI (HOP-62 NSCLC) | TGI (SK-OV-3 ovarian) | TGI (MCF7 breast) | TGI (HL-60(TB) leukemia) | TGI (ACHN renal) | TGI (SN12C renal) | TGI (NCI/ADR-RES ovarian) | TGI (OVCAR-8 ovarian) | TGI (RPMI-8226 leukemia) | TGI (TK-10 renal) | TGI (SNB-19 CNS) | TGI (HCT-116 colon) | TGI (NCI-H460 lung) | TGI (IGROV1 ovarian) | TGI (SF-268 CNS) | TGI (M14 melanoma) | TGI (SW-620 colon) | TGI (HOP-92 NSCLC) | TGI (PC-3 prostate) | TGI (DU-145 prostate) | TGI (UO-31 renal) | TGI (UACC-62 melanoma) | TGI (786-0 renal) | TGI (HS 578T breast) | TGI (NCI-H23 lung) | TGI (MALME-3M melanoma) | TGI (OVCAR-5 ovarian) | TGI (MOLT-4 leukemia) | TGI (HCC-2998 colon) | TGI (LOX IMVI melanoma) | TGI (SF-295 CNS) | TGI (K-562 leukemia) | TGI (HCT-15 colon) | TGI (CAKI-1 renal) | TGI (OVCAR-4 ovarian) | TGI (CCRF-CEM leukemia) | TGI (KM12 colon) | TGI (A549 NSCLC)
5.83 µM: TGI (A498 renal)
inactive: GI50 (HT29 colon) 3.05 µM | GI50 (COLO 205 colon) 1.88 µM | GI50 (T-47D breast) 3.8 µM | GI50 (NCI-H226 lung) 4.9 µM | GI50 (HOP-62 NSCLC) 2.49 µM | GI50 (SK-OV-3 ovarian) 5.95 µM | GI50 (HL-60(TB) leukemia) 0.616 µM | GI50 (ACHN renal) 1.65 µM | GI50 (SF-539 CNS) 1.18 µM | GI50 (SN12C renal) 2.22 µM | GI50 (NCI/ADR-RES ovarian) 3.43 µM | GI50 (OVCAR-8 ovarian) 2.36 µM | GI50 (A498 renal) 1.38 µM | GI50 (TK-10 renal) 1.84 µM | GI50 (SNB-19 CNS) 3.85 µM | GI50 (NCI-H460 lung) 0.514 µM | GI50 (IGROV1 ovarian) 1.47 µM | GI50 (SF-268 CNS) 4.08 µM | GI50 (M14 melanoma) 0.84 µM | GI50 (OVCAR-3 ovarian) 0.571 µM | GI50 (HOP-92 NSCLC) 5.2 µM | GI50 (U251 CNS) 0.897 µM | GI50 (PC-3 prostate) 0.518 µM | GI50 (RXF 393 renal) 1.6 µM | GI50 (DU-145 prostate) 1.5 µM | GI50 (UO-31 renal) 0.852 µM | GI50 (MDA-MB-231 breast) 2.29 µM | GI50 (SNB-75 CNS) 0.987 µM | GI50 (UACC-62 melanoma) 4.06 µM | GI50 (786-0 renal) 0.492 µM | GI50 (HS 578T breast) 2.55 µM | GI50 (NCI-H23 lung) 3.03 µM | GI50 (MALME-3M melanoma) 5.2 µM | GI50 (OVCAR-5 ovarian) 6.19 µM | GI50 (MOLT-4 leukemia) 2.46 µM | GI50 (HCC-2998 colon) 3.06 µM | GI50 (LOX IMVI melanoma) 1.24 µM | GI50 (SF-295 CNS) 2.63 µM | GI50 (HCT-15 colon) 0.428 µM | GI50 (SK-MEL-5 melanoma) 3.01 µM | GI50 (CAKI-1 renal) 1.03 µM | GI50 (OVCAR-4 ovarian) 4.41 µM | GI50 (CCRF-CEM leukemia) 0.625 µM | GI50 (KM12 colon) 0.473 µM | GI50 (A549 NSCLC) 0.704 µM | GI50 (MDA-MB-435) 0.481 µM
5.16 µM: TGI (SF-539 CNS)
8.19 µM: TGI (RXF 393 renal)
